Assay: xn = mol fraction of the nth substance listed
Settings: for surface tension liquid-gas: Drop volume; for viscosity / speed of sound / mass density: 99 kPa, Liquid; for viscosity: Capillary tube (Ostwald / Ubbelohde) method; for speed of sound: Frequency=3 MHz, Sing-around technique in a fixed-path interferometer; for mass density: Vibrating tube method

CCC[n+]1ccccc1.F[B-](F)(F)F [1-propylpyridinium tetrafluoroborate] + O
Settings | mass density [kg/m3] | speed of sound [m/s] | surface tension liquid-gas [mN/m] | viscosity [mPa·s]
293.15 K, x1 = 0.0185 | 1034.4 | 1537.2 | – | –
293.15 K, x1 = 0.028 | – | – | 58.5 | –
293.15 K, x1 = 0.0287 | 1050.5 | 1551 | – | –
293.15 K, x1 = 0.0466 | 1074 | 1568.7 | – | –
293.15 K, x1 = 0.0492 | – | – | – | 1.359
293.15 K, x1 = 0.0551 | – | – | 56.1 | –
293.15 K, x1 = 0.0766 | 1103.9 | 1590.8 | – | –
293.15 K, x1 = 0.0952 | – | – | – | 1.827
293.15 K, x1 = 0.0964 | 1119 | 1602.6 | – | –
293.15 K, x1 = 0.1008 | – | – | 54 | –
293.15 K, x1 = 0.1522 | – | – | 52.7 | –
293.15 K, x1 = 0.1948 | – | – | – | 2.933
293.15 K, x1 = 0.1965 | – | – | 52 | –
293.15 K, x1 = 0.2011 | 1169.1 | 1640.9 | – | –
293.15 K, x1 = 0.2588 | – | – | – | 4.438
293.15 K, x1 = 0.2858 | 1191.6 | 1651.5 | – | –
293.15 K, x1 = 0.2947 | – | – | 51.5 | –
293.15 K, x1 = 0.3451 | – | – | 51.4 | –
293.15 K, x1 = 0.3891 | – | – | – | 8.303
293.15 K, x1 = 0.3968 | – | – | 51.2 | –
293.15 K, x1 = 0.3993 | 1211.3 | 1654.2 | – | –
293.15 K, x1 = 0.4779 | – | – | 51.1 | –
293.15 K, x1 = 0.4894 | – | – | – | 13.36
293.15 K, x1 = 0.4979 | 1223.2 | 1651.5 | – | –
293.15 K, x1 = 0.5772 | 1230.6 | 1648.1 | – | –
293.15 K, x1 = 0.5827 | – | – | 51.1 | –
293.15 K, x1 = 0.5942 | – | – | – | 19.97
293.15 K, x1 = 0.6015 | 1232.5 | 1647.3 | – | –
293.15 K, x1 = 0.6695 | 1237.6 | 1645.8 | – | –
293.15 K, x1 = 0.6846 | – | – | 51 | –
293.15 K, x1 = 0.6952 | – | – | – | 33.13
293.15 K, x1 = 0.7309 | 1241.4 | 1645.4 | – | –
293.15 K, x1 = 0.7771 | 1244.2 | 1645.6 | – | –
293.15 K, x1 = 0.7861 | – | – | 51 | –
293.15 K, x1 = 0.7903 | – | – | – | 53.92
293.15 K, x1 = 0.8395 | 1247.6 | 1647.1 | – | –
293.15 K, x1 = 0.8862 | – | – | 51.1 | –
293.15 K, x1 = 0.8982 | – | – | – | 97.09
293.15 K, x1 = 0.9054 | 1251.2 | 1649.5 | – | –
293.15 K, x1 = 0.9425 | – | – | 51.2 | –
293.15 K, x1 = 0.943 | – | – | – | 124.2
293.15 K, x1 = 0.9633 | 1254.5 | 1652.1 | – | –
293.15 K, x1 = 1 | 1256.7 | 1653.9 | 51.3 | 160
303.15 K, x1 = 0.0185 | 1030.5 | 1550.2 | – | –
303.15 K, x1 = 0.028 | – | – | 57.2 | –
303.15 K, x1 = 0.0287 | 1046.1 | 1564 | – | –
303.15 K, x1 = 0.0466 | 1068.7 | 1581.1 | – | –
303.15 K, x1 = 0.0492 | – | – | – | 1.092
303.15 K, x1 = 0.0551 | – | – | 54.8 | –
303.15 K, x1 = 0.0766 | 1097.8 | 1599.5 | – | –
303.15 K, x1 = 0.0952 | – | – | – | 1.278
303.15 K, x1 = 0.0964 | 1112.5 | 1607.8 | – | –
303.15 K, x1 = 0.1008 | – | – | 52.8 | –
303.15 K, x1 = 0.1522 | – | – | 51.6 | –
303.15 K, x1 = 0.1948 | – | – | – | 2.334
303.15 K, x1 = 0.1965 | – | – | 50.9 | –
303.15 K, x1 = 0.2011 | 1161.7 | 1627.8 | – | –
303.15 K, x1 = 0.2588 | – | – | – | 3.141
303.15 K, x1 = 0.2858 | 1184.2 | 1630.3 | – | –
303.15 K, x1 = 0.2947 | – | – | 50.6 | –
303.15 K, x1 = 0.3451 | – | – | 50.5 | –
303.15 K, x1 = 0.3891 | – | – | – | 6.162
303.15 K, x1 = 0.3968 | – | – | 50.3 | –
303.15 K, x1 = 0.3993 | 1203.8 | 1629.5 | – | –
303.15 K, x1 = 0.4779 | – | – | 50.2 | –
303.15 K, x1 = 0.4894 | – | – | – | 9.757
303.15 K, x1 = 0.4979 | 1215.7 | 1627.3 | – | –
303.15 K, x1 = 0.5772 | 1223.1 | 1625.1 | – | –
303.15 K, x1 = 0.5827 | – | – | 50.3 | –
303.15 K, x1 = 0.5942 | – | – | – | 14.93
303.15 K, x1 = 0.6015 | 1225 | 1624.6 | – | –
303.15 K, x1 = 0.6695 | 1230 | 1623.3 | – | –
303.15 K, x1 = 0.6846 | – | – | 50.3 | –
303.15 K, x1 = 0.6952 | – | – | – | 22.56
303.15 K, x1 = 0.7309 | 1233.9 | 1622.6 | – | –
303.15 K, x1 = 0.7771 | 1236.7 | 1622.4 | – | –
303.15 K, x1 = 0.7861 | – | – | 50.3 | –
303.15 K, x1 = 0.7903 | – | – | – | 34.94
303.15 K, x1 = 0.8395 | 1240.2 | 1623 | – | –
303.15 K, x1 = 0.8862 | – | – | 50.3 | –
303.15 K, x1 = 0.8982 | – | – | – | 58.66
303.15 K, x1 = 0.9054 | 1243.9 | 1624.6 | – | –
303.15 K, x1 = 0.9425 | – | – | 50.4 | –
303.15 K, x1 = 0.943 | – | – | – | 70.68
303.15 K, x1 = 0.9633 | 1247.3 | 1627.3 | – | –
303.15 K, x1 = 1 | 1249.5 | 1629.8 | 50.5 | 90.75

Source: the NIST ThermoML archive (doi:10.1016/j.jct.2016.04.003)
